Where a name gives a salt, the structure may show the parent alone.
Tests used:
Assay type in all cases: biochemical
AKT1 = target: T1, AKT1 (Homo sapiens, UniProt P31749); assay: AKT Kinase Assay (IMAP fluorescent polarisation), AKT1 isoform; settings: for IC50: activated AKT1, FAM Crosstide substrate; for potency against AKT1 compared with the comparator compound: compared with the non-hydroxylated Compound A, F or L
T1 construct: purchased SignalChem
Protocol: (§1) Testing of the compounds was performed using an AKT Kinase Assay:
(§2) Activated AKT isoforms 1, 2 and 3 were assayed utilising a 5′ FAM Crosstide (Seq. GRPRTSSFAEG-OH). The extent of kinase phosphorylation was determined by fluorescent polarisation using IMAP progressive binding reagent, which introduces binding beads which allow the reagent to specifically bind to phosphate residues via covalent co-ordination complex bonds.
(§3) iMAP binding solution stops Crosstide/kinase interaction and specifically binds phosphorylated substrates. The degree of phosphorylation is determined by fluorescent polarisation (excitation 485 nm; emission 528 nm) or the reduction in speed of rotation of the excited substrate.
(§4) The following materials were used in the assay: • a) Activated AKT isoforms (SignalChem.) dissolved in Complete Reaction buffer at a predetermined concentration selected so that the assay was carried out in the linear range. • b) AKT substrate peptide: FAM Crosstide (R7110) Molecular Devices, diluted in complete reaction buffer. • c) iMAP Progressive Screening Express Kit (R8127) Molecular Devices • d) Complete Reaction Buffer containing 0.1% BSA, 10 mM Tris-HCl, 10 mM MgCl2, 0.05% NaN3 and 0.01% phosphate free BSA, 1 mM DTT • e) Progressive Binding Solution containing 75% Buffer A, 25% Buffer B and low volume Binding Reagent which contains the binding entity for the assay • f) ATP diluted in complete reaction buffer • g) Black polystyrene 384 well assay plates (Nunc). • h) Biotek Synergy 4 Hybrid Plate reader.
(§5) 5 μl of test compound was dissolved in DMSO (Sigma Aldrich) and serially diluted in complete reaction buffer to give a fourteen point half log dose response and plated into 384 well black plates. The compound was incubated at room temperature with activated AKT isoform (5 μl) at the predetermined concentration, for 45 min.
(§6) 2.5 μl of ATP solution mixed with 2.5 μl of AKT substrate peptide (FAM Crosstide (R7110) Molecular Devices) were dispensed into each well and the plate centrifuged at 1000 rpm for 20 seconds to ensure homogenous mixing of reagents. The reaction mix was incubated in the dark for 1 h at room temperature.
(§7) The kinase reaction was stopped by the addition of Progressive Binding Solution and the mixture allowed to equilibrate for 1 h in the dark, at room temperature.
(§8) The fluorescent polarisation generated in each well was determined using a […] Synergy 4 Hybrid plate reader. In brief, each reaction solution was excited at 485 nm with the emission measured at 528 nm in both the parallel and perpendicular pathway.
(§9) The polarisation value generated in each well was calculated by Gen5 software (Biotek) and the % inhibition of kinase activity compared to vehicle control was calculated via GraphPad Prism. IC50 values for each compound were calculated by non-linear regression analysis using Prism software.
(§10) All plates were internally controlled by two methods. Firstly, by calculating the signal:noise ratio; based on kinase polarisation without inhibitor and polarisation generated by complete reaction buffer in the absence of activated kinase. Secondly by determining IC50 values generated by known inhibitors of the AKT isoforms.
(§11) The data was analysed using GraphPad Prism, with IC50 values generated using non-linear regression of the data set.

AKT2 = target: T2, AKT2 (Homo sapiens, UniProt P31751); assay: AKT Kinase Assay (IMAP fluorescent polarisation), AKT2 isoform; settings: for IC50: activated AKT2, FAM Crosstide substrate; for potency against AKT2 compared with the comparator compound: compared with the non-hydroxylated Compound A, F or L
T2 construct: purchased SignalChem
T2 sequence (P31751 whole entry, canonical isoform): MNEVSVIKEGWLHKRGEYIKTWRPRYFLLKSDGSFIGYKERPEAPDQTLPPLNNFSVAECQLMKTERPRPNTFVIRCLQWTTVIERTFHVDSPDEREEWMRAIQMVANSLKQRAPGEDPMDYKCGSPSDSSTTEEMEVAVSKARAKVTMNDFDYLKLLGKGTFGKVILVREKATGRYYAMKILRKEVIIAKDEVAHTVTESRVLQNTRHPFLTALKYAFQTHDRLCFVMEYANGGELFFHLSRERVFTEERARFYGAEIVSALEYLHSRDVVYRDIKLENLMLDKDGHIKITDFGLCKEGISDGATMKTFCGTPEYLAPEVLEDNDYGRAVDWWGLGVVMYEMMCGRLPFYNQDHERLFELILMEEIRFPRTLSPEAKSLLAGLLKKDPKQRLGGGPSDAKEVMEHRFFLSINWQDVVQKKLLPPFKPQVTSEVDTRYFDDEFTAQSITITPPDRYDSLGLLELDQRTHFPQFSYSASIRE
Protocol: as §1, §2, §3, §4, §5, §6, §7, §8, §9, §10, §11

AKT3 = target: T3, AKT3 (Homo sapiens, UniProt Q9Y243); assay: AKT Kinase Assay (IMAP fluorescent polarisation), AKT3 isoform; settings: for IC50: activated AKT3, FAM Crosstide substrate; for potency against AKT3 compared with the comparator compound: compared with the non-hydroxylated Compound A, F or L
T3 construct: purchased SignalChem
T3 sequence (Q9Y243 whole entry, canonical isoform): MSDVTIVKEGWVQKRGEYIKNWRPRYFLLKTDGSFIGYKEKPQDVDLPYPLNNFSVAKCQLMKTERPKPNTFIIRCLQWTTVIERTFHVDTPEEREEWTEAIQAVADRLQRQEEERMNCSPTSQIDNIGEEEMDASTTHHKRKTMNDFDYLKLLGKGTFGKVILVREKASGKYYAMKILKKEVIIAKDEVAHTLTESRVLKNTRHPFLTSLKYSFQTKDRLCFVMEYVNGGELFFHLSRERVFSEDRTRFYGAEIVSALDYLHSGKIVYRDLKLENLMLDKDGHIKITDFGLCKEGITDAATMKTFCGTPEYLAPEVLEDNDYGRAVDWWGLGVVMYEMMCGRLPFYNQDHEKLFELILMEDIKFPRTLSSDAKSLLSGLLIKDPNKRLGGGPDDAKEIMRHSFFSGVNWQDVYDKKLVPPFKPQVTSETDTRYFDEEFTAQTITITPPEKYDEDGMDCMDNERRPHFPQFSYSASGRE
Protocol: as §1, §2, §3, §4, §5, §6, §7, §8, §9, §10, §11

T1 sequence (P31749 whole entry, canonical isoform): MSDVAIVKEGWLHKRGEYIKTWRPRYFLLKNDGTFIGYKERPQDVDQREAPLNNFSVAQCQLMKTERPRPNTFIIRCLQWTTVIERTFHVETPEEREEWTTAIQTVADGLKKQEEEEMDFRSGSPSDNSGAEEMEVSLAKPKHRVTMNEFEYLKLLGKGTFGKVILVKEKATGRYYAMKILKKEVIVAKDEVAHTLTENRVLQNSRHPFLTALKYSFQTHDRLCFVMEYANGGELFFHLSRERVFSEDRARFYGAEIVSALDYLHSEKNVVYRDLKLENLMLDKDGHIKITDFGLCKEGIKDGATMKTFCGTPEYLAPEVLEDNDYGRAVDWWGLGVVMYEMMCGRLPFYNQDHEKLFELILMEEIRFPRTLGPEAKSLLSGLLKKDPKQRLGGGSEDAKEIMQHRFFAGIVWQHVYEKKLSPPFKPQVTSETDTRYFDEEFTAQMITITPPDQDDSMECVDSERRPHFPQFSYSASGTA

Compound | IC50 (AKT1) | IC50 (AKT2) | IC50 (AKT3) | potency against AKT2 compared with the comparator compound (AKT2) | potency against AKT3 compared with the comparator compound (AKT3) | potency against AKT1 compared with the comparator compound (AKT1) | selectivity for AKT2 over AKT1 and AKT3 compared with compound A (AKT2; compared with compound A)
Cn1c(-c2ccc(C3(N)CCC3)cc2)c(-c2ccccc2)c2c(=O)n(CC(F)(F)F)cnc21 [Compound L, reference compound] | 300 to 1500 nM | 20 to 100 nM | > 6000 nM |  |  |  | 
C[C@]1(O)C[C@@](N)(c2ccc(-c3oc4ncn(CC(F)(F)F)c(=O)c4c3-c3ccccn3)cc2)C1 [Compound 14, 6-(4-((1r,3r)-1-Amino-3-hydroxy-3-methylcyclobutyl)phenyl)-5-(pyridin-2-yl)-3-(2,2,2-trifluoroethyl)furo[2,3-d]pyrimidin-4(3H)-one.HCl] | > 1500 nM | > 100 nM | > 6000 nM |  |  |  | 
Cn1c(-c2ccc([C@]3(N)C[C@](C)(O)C3)cc2)c(-c2ccccn2)c2c(=O)n(CC(F)(F)F)cnc21 [Compound 15, 6-(4-((1r,3r)-1-Amino-3-hydroxy-3-methylcyclobutyl)phenyl)-7-methyl-5-(pyridin-2-yl)-3-(2,2,2-trifluoroethyl)-3H-pyrrolo[2,3-d]pyrimidin-4(7H)-one.TFA] | > 1500 nM | > 100 nM | > 6000 nM |  |  |  | 
Cn1c(-c2ccc([C@]3(N)C[C@@](C)(O)C3)cc2)c(-c2ccccc2)c2c(=O)n(CC(F)(F)F)cnc21 [Compound 10, 6-(4-((1s,3s)-1-Amino-3-hydroxy-3-methylcyclobutyl)phenyl)-7-methyl-5-phenyl-3-(2,2,2-trifluoroethyl)-3H-pyrrolo[2,3-d]pyrimidin-4(7H)-one.HCl] | 300 to 1500 nM | ≤ 20 nM | 1000 to 6000 nM | improved potency | improved potency |  | 
Cn1c(-c2ccc([C@]3(N)C[C@H](O)C3)cc2)c(-c2ccccc2)c2c(=O)n(CC(F)(F)F)cnc21 [Compound 11, 6-(4-((1r,3r)-1-Amino-3-hydroxycyclobutyl)phenyl)-7-methyl-5-phenyl-3-(2,2,2-trifluoroethyl)-3H-pyrrolo[2,3-d]pyrimidin-4(7H)-one.HCl] | > 1500 nM | 20 to 100 nM | > 6000 nM |  |  |  | 
C[C@]1(O)C[C@](N)(c2ccc(-c3sc4ncn(CC(F)(F)F)c(=O)c4c3-c3ccccn3)cc2)C1 [Compound 19, 6-(4-((1s,3s)-1-Amino-3-hydroxy-3-methylcyclobutyl)phenyl)-5-(pyridin-2-yl)-3-(2,2,2-trifluoroethyl)thieno[2,3-d]pyrimidin-4(3H)-one.HCl] | > 1500 nM | > 100 nM | > 6000 nM |  |  |  | 
NC1(c2ccc(-c3sc4ncn(CC(F)(F)F)c(=O)c4c3-c3ccccc3)cc2)CCC1 [Compound F, reference compound] | 300 to 1500 nM | > 100 nM | > 6000 nM |  |  |  | 
N[C@]1(c2ccc(-c3sc4ncn(CC(F)(F)F)c(=O)c4c3-c3ccccc3)cc2)C[C@@H](O)C1 [Compound 12, 6-(4-((1r,3r)-1-Amino-3-hydroxycyclobutyl)phenyl)-5-phenyl-3-(2,2,2-trifluoroethyl)thieno[2,3-d]pyrimidin-4(3H)-one.HCl] | 300 to 1500 nM | 20 to 100 nM | 1000 to 6000 nM | improved potency | improved potency |  | 
C[C@]1(O)C[C@](N)(c2ccc(-c3sc4ncn(CC(F)(F)F)c(=O)c4c3-c3ccccc3)cc2)C1 [Compound 8, 6-(4-((1s,3s)-1-Amino-3-hydroxy-3-methylcyclobutyl)phenyl)-5-phenyl-3-(2,2,2-trifluoroethyl)thieno[2,3-d]pyrimidin-4(3H)-one.HCl] | ≤ 300 nM | 20 to 100 nM | 1000 to 6000 nM | improved potency | improved potency | improved potency | 
C[C@]1(O)C[C@@](N)(c2ccc(-c3sc4ncn(CC(F)(F)F)c(=O)c4c3-c3ccccn3)cc2)C1 [Compound 20, 6-(4-((1r,3r)-1-Amino-3-hydroxy-3-methylcyclobutyl)phenyl)-5-(pyridin-2-yl)-3-(2,2,2-trifluoroethyl)thieno[2,3-d]pyrimidin-4(3H)-one.HCl] | > 1500 nM | > 100 nM | > 6000 nM |  |  |  | 
N[C@]1(c2ccc(-c3sc4ncn(CC(F)(F)F)c(=O)c4c3-c3ccccc3)cc2)C[C@H](O)C1 [Compound 9, 6-(4-((1s,3s)-1-Amino-3-hydroxycyclobutyl)phenyl)-5-phenyl-3-(2,2,2-trifluoroethyl)thieno[2,3-d]pyrimidin-4(3H)-one.HCl] | ≤ 300 nM | ≤ 20 nM | 1000 to 6000 nM | improved potency | improved potency | improved potency | 
Cn1c(-c2ccc([C@]3(N)C[C@](C)(O)C3)cc2)c(-c2ccncc2)c2c(=O)n(CC(F)(F)F)cnc21 [Compound 17, 6-(4-((1r,3r)-1-Amino-3-hydroxy-3-methylcyclobutyl)phenyl)-7-methyl-5-(pyridin-4-yl)-3-(2,2,2-trifluoroethyl)-3H-pyrrolo[2,3-d]pyrimidin-4(7H)-one.HCl] | > 1500 nM | > 100 nM | > 6000 nM |  |  |  | 
C[C@]1(O)C[C@@](N)(c2ccc(-c3oc4ncn(CC(F)(F)F)c(=O)c4c3-c3ccncc3)cc2)C1 [Compound 13, 6-(4-((1r,3r)-1-Amino-3-hydroxy-3-methylcyclobutyl)phenyl)-5-(pyridin-4-yl)-3-(2,2,2-trifluoroethyl)furo[2,3-d]pyrimidin-4(3H)-one.TFA] | > 1500 nM | ≤ 20 nM | > 6000 nM | improved potency |  |  | greater selectivity
Cn1c(-c2ccc([C@]3(N)C[C@@](C)(O)C3)cc2)c(-c2ccccn2)c2c(=O)n(CC(F)(F)F)cnc21 [Compound 18, 6-(4-((1 s,3s)-1-Amino-3-hydroxy-3-methylcyclobutyl)phenyl)-7-methyl-5-(pyridin-2-yl)-3-(2,2,2-trifluoroethyl)-3H-pyrrolo[2,3-d]pyrimidin-4(7H)-one.HCl] | > 1500 nM | > 100 nM | > 6000 nM |  |  |  | 
Cn1c(-c2ccc([C@]3(N)C[C@](C)(O)C3)cc2)c(-c2cccnc2)c2c(=O)n(CC(F)(F)F)cnc21 [Compound 16, 6-(4-((1r,3r)-1-Amino-3-hydroxy-3-methylcyclobutyl)phenyl)-7-methyl-5-(pyridin-3-yl)-3-(2,2,2-trifluoroethyl)-3H-pyrrolo[2,3-d]pyrimidin-4(7H)-one.TFA] | > 1500 nM | > 100 nM | > 6000 nM |  |  |  | 

Reference: patent US9156853B2, “AKT inhibitor compounds for treatment of cancer” (ALMAC DISCOVERY LIMITED, priority 2012, dated 2015)
